Results: BigSolDB 2.1

C1CC1N1C2C3N(C4CC4)C1C1N(C4CC4)C(C(N1C1CC1)N3C1CC1)N2C1CC1
solubility (mole fraction)
Settings | 278.15 K | 283.15 K | 288.15 K | 293.15 K | 298.15 K | 303.15 K | 308.15 K | 313.15 K | 318.15 K
in 1,1,2-trichloroethane | 0.00866 | 0.00991 | 0.0113 | 0.0127 | 0.0143 | 0.0161 | 0.0182 | 0.0206 | 0.0234
in 1,2-dichloroethane | 0.00228 | 0.00279 | 0.00343 | 0.00421 | 0.00513 | 0.00624 | 0.00752 | 0.00903 | 0.0108
in acetone | 0.000269 | 0.000333 | 0.000411 | 0.000503 | 0.000611 | 0.000736 | 0.000875 | 0.00103 | 0.0012
in acetonitrile | 5.71e-05 | 6.68e-05 | 7.76e-05 | 8.91e-05 | 0.000101 | 0.000114 | 0.000128 | 0.000143 | 0.000159
in chloroform | 0.0231 | 0.0263 | 0.0297 | 0.0332 | 0.0367 | 0.0405 | 0.0444 | – | –
in cyclohexane | – | 0.00931 | 0.0111 | 0.0132 | 0.0157 | 0.0186 | 0.0218 | 0.0255 | 0.0297
in dichloromethane | 0.0129 | 0.0147 | 0.0169 | 0.0194 | 0.0222 | 0.0255 | 0.0291 | – | –
in ethanol | 0.000225 | 0.000283 | 0.00036 | 0.000452 | 0.000557 | 0.000675 | 0.000805 | 0.000951 | 0.00111
in ethyl acetate | 0.00121 | 0.0014 | 0.00168 | 0.00204 | 0.00249 | 0.00305 | 0.00373 | 0.00455 | 0.00552
in methanol | 4.66e-05 | 7.71e-05 | 0.00011 | 0.000144 | 0.00018 | 0.000219 | 0.000259 | 0.0003 | 0.000341
in n-hexane | 0.00406 | 0.00447 | 0.00507 | 0.00588 | 0.00692 | 0.00819 | 0.00973 | 0.0116 | 0.0138
in tetrachloromethane | 0.0269 | 0.0298 | 0.0333 | 0.0372 | 0.0415 | 0.0461 | 0.0511 | 0.0568 | 0.0632
